Molecular target: Nucleoprotein (Influenza A virus (strain A/Wilson-Smith/1933 H1N1), UniProt P15682, S377G)
Experiment: Binding affinity to Influenza A virus (A/WSN/1933(H1N1)) nucleoprotein S377G mutant transfected in 293T cells assessed as inhibition of RNA dependent RNA polymerase activity
Assay type: cell-based, Influenza A virus (A/Weiss/1943(H1N1))

Row | SMILES | IC50
1 | Cc1onc(-c2ccccc2Cl)c1C(=O)N1CCN(c2ccc([N+](=O)[O-])cc2)CC1 | 300 nM
2 | Cn1c(=O)c2c(-c3ccccc3)n3c(c2n(C)c1=O)C(c1ccccc1F)OCC3(C)C (configuration not stated) | 1700 nM

Reference: ChEMBL document CHEMBL3616452 (Eur J Med Chem, 2015)
